# Measurements taken from US8685924B2, “Preventives/remedies for stress urinary incontinence and method of screening the same” (Takeda Pharmaceutical Company Limited, priority 2004, dated 2014).
# Values joined by “and” are separate entries in the source; they are usually repeats but may differ in a detail not shown here. Identical values can stand only once.
# Columns and labels:
# [1] = tested on: urethane-anesthetized female rats; assay: Leak point pressure by direct compressing of the bladder (Example 4); assay type: in vivo, rat; conditions: for leak point pressure after drug administration / leak point pressure increase / leak point pressure before drug administration: i.v., mean ± SEM; for leak point pressure after drug administration: 20 min later; for leak point pressure before drug administration: baseline; for effect on leak point pressure: intravenous administration
# Protocol: SD female rats (body weight 180-350 g) were anesthetized with urethane (Wako Pure Chemical Industries, Ltd.), and halothane (Takeda Pharmaceutical Company Limited) anesthesia was added when necessary during operation.
# The spinal cord was transected at T8-9 level to eliminate the reflex voiding. The lower abdomen was incised in the median line, a catheter for intravesical pressure measurement (PE-90, Clay Adams) was inserted into the bladder and secured with a ligature, and the intravesical pressure was measured via a pressure transducer. Urine was emptized in advance by bilaterally pressing the bladder with two swabs, and a 0.1% Evans blue (Merck) solution (0.4 mL) was injected into the bladder. The bladder was gradually compressed bilaterally with two swabs, and the intravesical pressure upon saline leakage from the urethral orifice was measured and defined as a leak point pressure. The measurement of the leak point pressure was repeated, and the average value of the final five stable measures was taken as the value before drug administration. Thereafter, the drug was intravenously administered, the leak point pressure was measured again 20 min later, and the value after the drug administration was determined. DOI, mCPP and eltoprazine were dissolved in saline, and other drugs were dissolved in DMA/PEG400 (1:1), and intravenously administered at 1 ml/kg and 0.5 mg/kg, respectively. Depending on the experiment, RS-102221 or SB221284 (showing serotonin 5-HT2C receptor antagonist activity) was administered, 5 min later, WAY-161503 or WAY-163909 was administered, leak point pressure was measured 10 min later, and a competitive assay with the action of WAY-161503 or WAY-163909 was performed. RS-102221 and SB221284 were both dissolved in DMA/PEG400 (1:1), and intravenously administered at 0.5 ml/kg.
# [2] = tested on: urethane-anesthetized female rats; assay: Leak point pressure by abdominal wall-electrically stimulating method, serotonin 5-HT receptor agonists (Example 3); assay type: in vivo, rat; conditions: for leak point pressure after drug administration / leak point pressure increase / leak point pressure before drug administration: i.v., mean ± SEM; for leak point pressure before drug administration: baseline; for effect on leak point pressure: intravenous administration
# Protocol: SD female rats (body weight 180-350 g) were anesthetized with urethane (Wako Pure Chemical Industries, Ltd.), and the spinal cord was transected at T8-9 level to eliminate the reflex voiding. In addition, the nerve to the iliococcygeus muscle/pubococcygeus muscle on the one side was transected. During operation, halothane (Takeda Pharmaceutical Company Limited) anesthesia was added when necessary. A catheter (PE-90, Clay Adams) was inserted into the bladder and secured with a ligature, and the incised part of each of the abdominal muscle and skin was closed with sutures. The abdominal skin near the diaphragm was incised at two left and right positions to newly expose the abdominal muscle. An Evans Blue dye (Merck) solution was injected into the bladder, and the bladder volume was adjusted to 0.2-0.3 ml. The bladder catheter was connected to a pressure transducer, and the signals of the transducer were sent to a computer via an amplifier (blood pressure amplification unit AP-641G; NIHON KOHDEN) and an analog-to-digital converter (BIOPAC; MP100), and recorded on a hard disc. The data were analyzed on a computer using software (BIOPAC; AcqKnowledge). The exposed abdominal muscle was electrostimulated using an electrostimulator (SEN-3301; NIHON KODEN) and an isolator (SS-202J; NIHON KODEN), and the presence or absence of incontinence from the meatus urethra was observed. The electrostimulation was applied at a voltage of 2.5-50 V, duration of 0.5 milisec, and frequency 50 Hz for 1 sec, thereby gradually increasing the intravesical pressure. The peak intravesical pressure during stimulation of the abdominal wall was measured and, of the trials with observed incontinence, the lowest peak intravesical pressure was defined as the leak point pressure. Serotonin 5-HT receptor agonist, WAY-161503 (5-HT2C receptor agonist), WAY-163909 (5-HT2C receptor agonist), DOI (5-HT2A/2B/2C receptor agonist), mCPP (5-HT2B/2C receptor partial agonist), eltoprazine (5-HT1A/1B/2C receptor partial agonist), 8-OH-DPAT (5-HT1A receptor agonist), sumatryptan (5-HT1B/1D receptor agonist) and BW723C86 (5-HT2B receptor agonist) were intravenously administered, and the leak point pressure was compared before and after the administration. DOI, mCPP and eltoprazine were dissolved in saline, and other drugs were dissolved in DMA/PEG400 (1:1), and they were intravenously administered at 1 ml/kg and 0.5 mg/kg, respectively. Depending on the experiment, RS-102221 (serotonin 5-HT2C receptor antagonist) or SB221284 (serotonin 5-HT2B/2C receptor antagonist) was intravenously administered 5 min before WAY-161503 or WAY-163909 administration, and an antagonistic effect against the WAY-161503 or WAY-163909-induced increment of the leak point pressure was examined. RS-102221 and SB221284 were both dissolved in DMA/PEG400 (1:1) and intravenously administered at 0.5 ml/kg.
smiles,measurement,setting,value
Clc1cccc(N2CCNCC2)c1 [mCPP],leak point pressure after drug administration,[1]; 0.003 mg/kg,67.0 ± 5.3 cmH2O
same,leak point pressure increase,[1]; 0.003 mg/kg,4.1 ± 2.1 cmH2O
same,leak point pressure after drug administration,[1]; 0.01 mg/kg,69.3 ± 3.4 cmH2O
same,leak point pressure increase,[1]; 0.01 mg/kg,6.3 ± 2.3 cmH2O
same,leak point pressure after drug administration,[1]; 0.03 mg/kg,73.8 ± 7.1 cmH2O
same,leak point pressure increase,[1]; 0.03 mg/kg,11.6 ± 3.1 cmH2O
same,leak point pressure after drug administration,[1]; 0.1 mg/kg,76.7 ± 4.0 cmH2O
same,leak point pressure increase,[1]; 0.1 mg/kg,13.6 ± 2.5 cmH2O
same,leak point pressure after drug administration,[1]; 0.3 mg/kg,71.1 ± 7.1 cmH2O
same,leak point pressure increase,[1]; 0.3 mg/kg,5.4 ± 2.2 cmH2O
same,leak point pressure before drug administration,[1]; dose group 0.003 mg/kg,62.9 ± 5.0 cmH2O
same,leak point pressure before drug administration,[1]; dose group 0.01 mg/kg,63.0 ± 2.7 cmH2O
same,leak point pressure before drug administration,[1]; dose group 0.03 mg/kg,62.2 ± 4.4 cmH2O
same,leak point pressure before drug administration,[1]; dose group 0.1 mg/kg,63.1 ± 3.9 cmH2O
same,leak point pressure before drug administration,[1]; dose group 0.3 mg/kg,65.7 ± 7.8 cmH2O
same,effect on leak point pressure,[1],increased the leak point pressure significantly
same,leak point pressure after drug administration,[2]; 0.01 mg/kg,49.1 ± 6.4 cmH2O
same,leak point pressure increase,[2]; 0.01 mg/kg,2.8 ± 2.1 cmH2O
same,leak point pressure after drug administration,[2]; 0.03 mg/kg,52.3 ± 4.3 cmH2O
same,leak point pressure increase,[2]; 0.03 mg/kg,14.6 ± 2.7 cmH2O
same,leak point pressure after drug administration,[2]; 0.1 mg/kg,59.7 ± 6.6 cmH2O
same,leak point pressure increase,[2]; 0.1 mg/kg,13.2 ± 2.8 cmH2O
same,leak point pressure before drug administration,[2]; dose group 0.01 mg/kg,46.3 ± 5.8 cmH2O
same,leak point pressure before drug administration,[2]; dose group 0.03 mg/kg,37.7 ± 4.0 cmH2O
same,leak point pressure before drug administration,[2]; dose group 0.1 mg/kg,46.5 ± 6.1 cmH2O
same,effect on leak point pressure,[2],increased the leak point pressure significantly
COc1cc(CC(C)N)c(OC)cc1I (stereo not shown) [DOI],leak point pressure after drug administration,[1]; 0.01 mg/kg,68.5 ± 5.7 cmH2O
same,leak point pressure increase,[1]; 0.01 mg/kg,2.9 ± 2.0 cmH2O
same,leak point pressure after drug administration,[1]; 0.03 mg/kg,71.1 ± 6.7 cmH2O
same,leak point pressure increase,[1]; 0.03 mg/kg,6.2 ± 2.9 cmH2O
same,leak point pressure after drug administration,[1]; 0.1 mg/kg,79.5 ± 2.6 cmH2O
same,leak point pressure increase,[1]; 0.1 mg/kg,14.3 ± 2.8 cmH2O
same,leak point pressure after drug administration,[1]; 0.3 mg/kg,85.7 ± 6.0 cmH2O
same,leak point pressure increase,[1]; 0.3 mg/kg,18.7 ± 2.9 cmH2O
same,leak point pressure after drug administration,[1]; 1 mg/kg,82.9 ± 3.6 cmH2O
same,leak point pressure increase,[1]; 1 mg/kg,22.6 ± 2.5 cmH2O
same,leak point pressure before drug administration,[1]; dose group 0.01 mg/kg,65.7 ± 6.3 cmH2O
same,leak point pressure before drug administration,[1]; dose group 0.03 mg/kg,64.9 ± 5.4 cmH2O
same,leak point pressure before drug administration,[1]; dose group 0.1 mg/kg,65.2 ± 3.6 cmH2O
same,leak point pressure before drug administration,[1]; dose group 0.3 mg/kg,67.0 ± 4.3 cmH2O
same,leak point pressure before drug administration,[1]; dose group 1 mg/kg,60.3 ± 3.5 cmH2O
same,effect on leak point pressure,[1],increased the leak point pressure significantly
same,leak point pressure after drug administration,[2]; 0.01 mg/kg,39.7 ± 5.2 cmH2O
same,leak point pressure increase,[2]; 0.01 mg/kg,3.2 ± 3.3 cmH2O
same,leak point pressure after drug administration,[2]; 0.03 mg/kg,50.1 ± 7.1 cmH2O
same,leak point pressure increase,[2]; 0.03 mg/kg,5.9 ± 1.9 cmH2O
same,leak point pressure after drug administration,[2]; 0.1 mg/kg,63.2 ± 5.7 cmH2O
same,leak point pressure increase,[2]; 0.1 mg/kg,18.7 ± 2.9 cmH2O
same,leak point pressure after drug administration,[2]; 0.3 mg/kg,67.9 ± 11.5 cmH2O
same,leak point pressure increase,[2]; 0.3 mg/kg,27.2 ± 3.9 cmH2O
same,leak point pressure before drug administration,[2]; dose group 0.01 mg/kg,36.4 ± 7.6 cmH2O
same,leak point pressure before drug administration,[2]; dose group 0.03 mg/kg,44.2 ± 7.2 cmH2O
same,leak point pressure before drug administration,[2]; dose group 0.1 mg/kg,44.5 ± 5.8 cmH2O
same,leak point pressure before drug administration,[2]; dose group 0.3 mg/kg,40.7 ± 8.7 cmH2O
same,effect on leak point pressure,[2],increased the leak point pressure significantly
c1cc2c3c(c1)[C@@H]1CCC[C@@H]1N3CCNC2 [WAY-163907],leak point pressure after drug administration,[1]; 3 mg/kg,57.0 ± 5.1 cmH2O
same,leak point pressure increase,[1]; 3 mg/kg,1.9 ± 0.5 cmH2O
same,leak point pressure before drug administration,[1]; dose group 3 mg/kg,55.1 ± 4.7 cmH2O
same,effect on leak point pressure,[1],showed no effect
same,leak point pressure after drug administration,[2]; 3 mg/kg,47.4 ± 4.8 cmH2O
same,leak point pressure increase,[2]; 3 mg/kg,−4.8 ± 2.6 cmH2O
same,leak point pressure before drug administration,[2]; dose group 3 mg/kg,52.2 ± 3.4 cmH2O
same,effect on leak point pressure,[2],showed no effect
CCCN(CCC)C1CCc2cccc(O)c2C1 (stereo not shown) [8OH-DPAT],leak point pressure after drug administration,[2]; 0.3 mg/kg,47.1 ± 9.4 cmH2O
same,leak point pressure increase,[2]; 0.3 mg/kg,−1.5 ± 1.2 cmH2O
same,leak point pressure before drug administration,[2]; dose group 0.3 mg/kg,48.5 ± 9.6 cmH2O
same,effect on leak point pressure,[2],showed no effect
CNS(=O)(=O)Cc1ccc2[nH]cc(CCN(C)C)c2c1 [sumatryptan],leak point pressure after drug administration,[2]; 1 mg/kg,42.2 ± 2.0 cmH2O and 44.9 ± 9.1 cmH2O
same,leak point pressure after drug administration,[2]; 3 mg/kg,54.4 ± 7.5 cmH2O
same,leak point pressure increase,[2]; 3 mg/kg,1.5 ± 2.6 cmH2O
same,leak point pressure before drug administration,[2]; dose group 1 mg/kg,44.2 ± 2.6 cmH2O and 43.2 ± 8.3 cmH2O
same,leak point pressure before drug administration,[2]; dose group 3 mg/kg,52.9 ± 7.8 cmH2O
same,effect on leak point pressure,[2],showed no effect
c1cc2c(c(N3CCNCC3)c1)OCCO2 [eltoprazine],leak point pressure after drug administration,[1]; 1 mg/kg,76.7 ± 4.7 cmH2O
same,leak point pressure increase,[1]; 1 mg/kg,8.0 ± 2.8 cmH2O
same,leak point pressure after drug administration,[1]; 3 mg/kg,74.6 ± 2.3 cmH2O
same,leak point pressure increase,[1]; 3 mg/kg,13.5 ± 1.0 cmH2O
same,leak point pressure before drug administration,[1]; dose group 1 mg/kg,68.6 ± 6.1 cmH2O
same,leak point pressure before drug administration,[1]; dose group 3 mg/kg,61.1 ± 2.4 cmH2O
same,effect on leak point pressure,[1],increased the leak point pressure significantly
same,leak point pressure after drug administration,[2]; 1 mg/kg,55.2 ± 4.5 cmH2O
same,leak point pressure increase,[2]; 1 mg/kg,6.1 ± 1.7 cmH2O
same,leak point pressure after drug administration,[2]; 3 mg/kg,63.2 ± 5.6 cmH2O
same,leak point pressure increase,[2]; 3 mg/kg,15.8 ± 3.1 cmH2O
same,leak point pressure before drug administration,[2]; dose group 1 mg/kg,49.2 ± 5.2 cmH2O
same,leak point pressure before drug administration,[2]; dose group 3 mg/kg,47.4 ± 5.5 cmH2O
same,effect on leak point pressure,[2],increased the leak point pressure significantly
CC(N)Cc1c[nH]c2ccc(OCc3cccs3)cc12 (stereo not shown) [BW723C86],leak point pressure after drug administration,[2]; 3 mg/kg,48.9 ± 4.6 cmH2O
same,leak point pressure increase,[2]; 3 mg/kg,2.5 ± 3.5 cmH2O
same,leak point pressure after drug administration,[2]; 10 mg/kg,48.6 ± 3.2 cmH2O
same,leak point pressure increase,[2]; 10 mg/kg,−0.7 ± 3.9 cmH2O
same,leak point pressure before drug administration,[2]; dose group 3 mg/kg,46.4 ± 5.6 cmH2O
same,leak point pressure before drug administration,[2]; dose group 10 mg/kg,49.3 ± 6.5 cmH2O
same,effect on leak point pressure,[2],showed no effect
